Assay results: patent publication US20240327408A1, “COMPOUNDS CONTAINING TETRAHYDRONAPHTHYRIDINONE OR TETRAHYDROPYRIDOPYRIMIDINONE SKELETON, PREPARATION METHOD THEREFOR AND PHARMACEUTICAL USE THEREOF” (CHINA PHARMACEUTICAL UNIVERSITY, priority 2021, published 2024)

Legend:
hClpP = target: T1, hClpP (Homo sapiens, UniProt Q16740); assay: activating ClpP hydrolysis of FITC-casein (fluorescence kinetic detection); format: biochemical; conditions: hClpP 1 μM, FITC-Casein 4 μM, 37° C.
T1 construct: made in house
T1 sequence (Q16740 57-277): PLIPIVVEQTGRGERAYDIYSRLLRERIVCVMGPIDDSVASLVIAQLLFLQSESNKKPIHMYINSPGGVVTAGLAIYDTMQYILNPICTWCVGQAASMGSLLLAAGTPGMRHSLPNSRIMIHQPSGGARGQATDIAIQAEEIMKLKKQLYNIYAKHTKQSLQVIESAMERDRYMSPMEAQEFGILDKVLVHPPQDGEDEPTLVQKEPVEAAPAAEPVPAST
Method: The specific procedures were as follows:
Test compounds were each prepared into a 100 mM stock solution in DMSO and stored. and 1 μL of stock solution of each of the compounds was taken and diluted to 10 mM by adding 9 μL of DMSO for later use.
The compounds of formula I of the present invention were each diluted at concentrations of 200 μM, 50 μM, 10 μM, 2 μM, 500 nM, 100 nM, 20 nM, and 2 nM in an assay buffer. 50 μL of each of the compounds at different concentrations was added to each well, with 2 replicate wells.
The protein was diluted to 4 μM in an assay buffer. 25 μL of protein was added to each well, and incubated at 37° C. for 30 min. The final concentration was 1 μM.
25 μL of FITC-Casein was added to each well. The final concentration was 4 μM. The mixture was immediately loaded on the machine for detection.
FITC-Casein and FITC-Casein+ClpP were used as negative controls.
The detection temperature was 37° C. The plate was shaken for 3 s. […] Kinetic parameters were set, and scanning was performed once every 1 min for 15 min.

MV4; 11 cells = assay: inhibiting the growth of MV4; 11 cells; format: cell-based; conditions: Homo sapiens

Structure (SMILES)	EC50 (hClpP) [µM]	IC50 (MV4; 11 cells) [µM]
Cc1cc(CN2CCc3c(c(=O)n(Cc4ccccc4)c4ncccc34)C2)n(C)n1 [Compound I-26, 6-benzyl-3-((1,3-dimethyl-1H-pyrazol-5-yl)methyl)-2,3,4,6-tetrahydropyrido[3,4-c][1,8]naphthyridine-5-(1H)-one]	10 to 100	1 to 10
O=c1c2c(c3cccnc3n1Cc1ccccc1)CCN(Cc1ccccn1)C2 [Compound I-27, 6-benzyl-3-(pyridin-2-ylmethyl)-2,3,4,6-tetrahydropyrido[3,4-c][1,8]naphthyridine-5-(1H)-one]	10 to 100	1 to 10
O=c1c2c(c3cccnc3n1Cc1ccccc1)CCN(Cc1cccnc1)C2 [Compound I-28, 6-benzyl-3-(pyridin-3-ylmethyl)-2,3,4,6-tetrahydropyrido[3,4-c][1,8]naphthyridine-5-(1H)-one]	10 to 100	1 to 10
O=c1c2c(c3cccnc3n1Cc1ccccc1)CCN(Cc1ccncc1)C2 [Compound I-29, 6-benzyl-3-(pyridin-4-ylmethyl)-2,3,4,6-tetrahydropyrido[3,4-c][1,8]naphthyridine-5-(1H)-one]	10 to 100	1 to 10
O=c1c2c(c3cccnc3n1Cc1ccccc1)CCN(Cc1cc(Cl)ccn1)C2 [Compound I-30, 6-benzyl-3-((4-chloropyridin-2-yl)methyl)-2,3,4,6-tetrahydropyrido[3,4-c][1,8]naphthyridine-5-(1H)-one]	10 to 100	1 to 10
Cn1ccnc1CN1CCc2c(c(=O)n(Cc3ccccc3)c3ncccc23)C1 [Compound I-31, 6-benzyl-3-((1-methyl-1H-imidazol-2-yl)methyl)-2,3,4,6-tetrahydropyrido[3,4-c][1,8]naphthyridine-5-(1H)-one]	10 to 100	1 to 10
Cn1cnc(CN2CCc3c(c(=O)n(Cc4ccccc4)c4ncccc34)C2)c1 [Compound I-32, 6-benzyl-3-((1-methyl-1H-imidazol-4-yl)methyl)-2,3,4,6-tetrahydropyrido[3,4-c][1,8]naphthyridine-5-(1H)-one]	10 to 100	1 to 10
Cn1cncc1CN1CCc2c(c(=O)n(Cc3ccccc3)c3ncccc23)C1 [Compound I-33, 6-benzyl-3-((1-methyl-1H-imidazol-5-yl)methyl)-2,3,4,6-tetrahydropyrido[3,4-c][1,8]naphthyridine-5-(1H)-one]	10 to 100	1 to 10
Cc1noc(C)c1CN1CCc2c(c(=O)n(Cc3ccccc3)c3ncccc23)C1 [Compound I-34, 6-benzyl-3-((3,5-dimethylisoxazol-4-yl)methyl)-2,3,4,6-tetrahydropyrido[3,4-c][1,8]naphthyridine-5-(1H)-one]	10 to 100	1 to 10
Cc1ncc(CN2CCc3c(c(=O)n(Cc4ccccc4)c4ncccc34)C2)s1 [Compound I-35, 6-benzyl-3-((2-methylthiazol-5-yl)methyl)-2,3,4,6-tetrahydropyrido[3,4-c][1,8]naphthyridine-5-(1H)-one]	10 to 100	1 to 10
O=c1c2c(c3cccnc3n1CC1CC1)CCN(Cc1ccccc1)C2 [Compound I-36, 3-benzyl-6-(cyclopropylmethyl)-2,3,4,6-tetrahydropyrido[3,4-c][1,8]naphthyridine-5-(1H)-one]	10 to 100	1 to 10
O=c1c2c(c3cccnc3n1CC1CCC1)CCN(Cc1ccccc1)C2 [Compound I-37, 3-benzyl-6-(cyclobutylmethyl)-2,3,4,6-tetrahydropyrido[3,4-c][1,8]naphthyridine-5-(1H)-one]	10 to 100	1 to 10
O=c1c2c(c3cccnc3n1CC1CCCC1)CCN(Cc1ccccc1)C2 [Compound I-38, 3-benzyl-6-(cyclopentylmethyl)-2,3,4,6-tetrahydropyrido[3,4-c][1,8]naphthyridine-5-(1H)-one]	10 to 100	1 to 10
O=c1c2c(c3cccnc3n1CC1CCCCC1)CCN(Cc1ccccc1)C2 [Compound I-39, 3-benzyl-6-(cyclohexylmethyl)-2,3,4,6-tetrahydropyrido[3,4-c][1,8]naphthyridine-5-(1H)-one]	10 to 100	0.91

Next, values leading:

EC50 (hClpP) [µM]	IC50 (MV4; 11 cells) [µM]	Structure (SMILES)
1 to 10	< 1	O=c1c2c(c3cccnc3n1Cc1ccccc1F)CCN(Cc1ccccc1)C2 [Compound I-40, 3-benzyl-6-(2-fluorobenzyl)-2,3,4,6-tetrahydropyrido[3,4-c][1,8]naphthyridine-5-(1H)-one]
1 to 10	< 1	O=c1c2c(c3cccnc3n1Cc1ccccc1Cl)CCN(Cc1ccccc1)C2 [Compound I-41, 3-benzyl-6-(2-chlorobenzyl)-2,3,4,6-tetrahydropyrido[3,4-c][1,8]naphthyridine-5-(1H)-one]
1 to 10	< 1	O=c1c2c(c3cccnc3n1Cc1ccccc1Br)CCN(Cc1ccccc1)C2 [Compound I-42, 3-benzyl-6-(2-bromobenzyl)-2,3,4,6-tetrahydropyrido[3,4-c][1,8]naphthyridine-5-(1H)-one]
1 to 10	< 1	Cc1ccccc1Cn1c(=O)c2c(c3cccnc31)CCN(Cc1ccccc1)C2 [Compound I-43, 3-benzyl-6-(2-methylbenzyl)-2,3,4,6-tetrahydropyrido[3,4-c][1,8]naphthyridine-5-(1H)-one]
1 to 10	< 1	CCc1ccccc1Cn1c(=O)c2c(c3cccnc31)CCN(Cc1ccccc1)C2 [Compound I-44, 3-benzyl-6-(2-ethylbenzyl)-2,3,4,6-tetrahydropyrido[3,4-c][1,8]naphthyridine-5-(1H)-one]
1 to 10	< 1	COc1ccccc1Cn1c(=O)c2c(c3cccnc31)CCN(Cc1ccccc1)C2 [Compound I-45, 3-benzyl-6-(2-methoxybenzyl)-2,3,4,6-tetrahydropyrido[3,4-c][1,8]naphthyridine-5-(1H)-one]
< 1	< 1	O=c1c2c(c3cccnc3n1Cc1cccc(F)c1)CCN(Cc1ccccc1)C2 [Compound I-46, 3-benzyl-6-(3-fluorobenzyl)-2,3,4,6-tetrahydropyrido[3,4-c][1,8]naphthyridine-5-(1H)-one]
< 1	< 1	O=c1c2c(c3cccnc3n1Cc1cccc(Cl)c1)CCN(Cc1ccccc1)C2 [Compound I-47, 3-benzyl-6-(3-chlorobenzyl)-2,3,4,6-tetrahydropyrido[3,4-c][1,8]naphthyridine-5-(1H)-one]
< 1	< 1	O=c1c2c(c3cccnc3n1Cc1cccc(Br)c1)CCN(Cc1ccccc1)C2 [Compound I-48, 3-benzyl-6-(3-bromobenzyl)-2,3,4,6-tetrahydropyrido[3,4-c][1,8]naphthyridine-5-(1H)-one]
< 1	< 1	Cc1cccc(Cn2c(=O)c3c(c4cccnc42)CCN(Cc2ccccc2)C3)c1 [Compound I-49, 3-benzyl-6-(3-methylbenzyl)-2,3,4,6-tetrahydropyrido[3,4-c][1,8]naphthyridine-5-(1H)-one]
< 1	< 1	CCc1cccc(Cn2c(=O)c3c(c4cccnc42)CCN(Cc2ccccc2)C3)c1 [Compound I-50, 3-benzyl-6-(3-ethylbenzyl)-2,3,4,6-tetrahydropyrido[3,4-c][1,8]naphthyridine-5-(1H)-one]
< 1	< 1	COc1cccc(Cn2c(=O)c3c(c4cccnc42)CCN(Cc2ccccc2)C3)c1 [Compound I-51, 3-benzyl-6-(3-methoxybenzyl)-2,3,4,6-tetrahydropyrido[3,4-c][1,8]naphthyridine-5-(1H)-one]
< 1	< 1	O=c1c2c(c3cccnc3n1Cc1ccc(F)cc1)CCN(Cc1ccccc1)C2 [Compound I-52, 3-benzyl-6-(4-fluorobenzyl)-2,3,4,6-tetrahydropyrido[3,4-c][1,8]naphthyridine-5-(1H)-one]
< 1	< 1	O=c1c2c(c3cccnc3n1Cc1ccc(Cl)cc1)CCN(Cc1ccccc1)C2 [Compound I-53, 3-benzyl-6-(4-chlorobenzyl)-2,3,4,6-tetrahydropyrido[3,4-c][1,8]naphthyridine-5-(1H)-one]
< 1	< 1	O=c1c2c(c3cccnc3n1Cc1ccc(Br)cc1)CCN(Cc1ccccc1)C2 [Compound I-54, 3-benzyl-6-(4-bromobenzyl)-2,3,4,6-tetrahydropyrido[3,4-c][1,8]naphthyridine-5-(1H)-one]
< 1	< 1	Cc1ccc(Cn2c(=O)c3c(c4cccnc42)CCN(Cc2ccccc2)C3)cc1 [Compound I-55, 3-benzyl-6-(4-methylbenzyl)-2,3,4,6-tetrahydropyrido[3,4-c][1,8]naphthyridine-5-(1H)-one]
< 1	< 1	CCc1ccc(Cn2c(=O)c3c(c4cccnc42)CCN(Cc2ccccc2)C3)cc1 [Compound I-56, 3-benzyl-6-(4-ethylbenzyl)-2,3,4,6-tetrahydropyrido[3,4-c][1,8]naphthyridine-5-(1H)-one]
< 1	< 1	COc1ccc(Cn2c(=O)c3c(c4cccnc42)CCN(Cc2ccccc2)C3)cc1 [Compound I-57, 3-benzyl-6-(4-methoxybenzyl)-2,3,4,6-tetrahydropyrido[3,4-c][1,8]naphthyridine-5-(1H)-one]
